Results from patent US9340590B2 (priority 2011, dated 2016).
Like-named read-outs stand apart in the source and are kept apart here. Positions of bridges follow the written chain, without caps; N, C: chain ends. Residues, ends and D or L forms follow the SMILES beside them. No end group written: not given here.

Molecular target: hNav1.7 (Homo sapiens, UniProt Q15858)
Assay: cell-based
Format: cell-based
Details: for IC50: read-out: IWQ Use Nav1.7
[1] = IonWorks Quattro, clamped to −110 mV, depolarized to −10 mV, 5 min after compound, n=2

Chain of hNav1.7 (Q15858 whole entry, looked up): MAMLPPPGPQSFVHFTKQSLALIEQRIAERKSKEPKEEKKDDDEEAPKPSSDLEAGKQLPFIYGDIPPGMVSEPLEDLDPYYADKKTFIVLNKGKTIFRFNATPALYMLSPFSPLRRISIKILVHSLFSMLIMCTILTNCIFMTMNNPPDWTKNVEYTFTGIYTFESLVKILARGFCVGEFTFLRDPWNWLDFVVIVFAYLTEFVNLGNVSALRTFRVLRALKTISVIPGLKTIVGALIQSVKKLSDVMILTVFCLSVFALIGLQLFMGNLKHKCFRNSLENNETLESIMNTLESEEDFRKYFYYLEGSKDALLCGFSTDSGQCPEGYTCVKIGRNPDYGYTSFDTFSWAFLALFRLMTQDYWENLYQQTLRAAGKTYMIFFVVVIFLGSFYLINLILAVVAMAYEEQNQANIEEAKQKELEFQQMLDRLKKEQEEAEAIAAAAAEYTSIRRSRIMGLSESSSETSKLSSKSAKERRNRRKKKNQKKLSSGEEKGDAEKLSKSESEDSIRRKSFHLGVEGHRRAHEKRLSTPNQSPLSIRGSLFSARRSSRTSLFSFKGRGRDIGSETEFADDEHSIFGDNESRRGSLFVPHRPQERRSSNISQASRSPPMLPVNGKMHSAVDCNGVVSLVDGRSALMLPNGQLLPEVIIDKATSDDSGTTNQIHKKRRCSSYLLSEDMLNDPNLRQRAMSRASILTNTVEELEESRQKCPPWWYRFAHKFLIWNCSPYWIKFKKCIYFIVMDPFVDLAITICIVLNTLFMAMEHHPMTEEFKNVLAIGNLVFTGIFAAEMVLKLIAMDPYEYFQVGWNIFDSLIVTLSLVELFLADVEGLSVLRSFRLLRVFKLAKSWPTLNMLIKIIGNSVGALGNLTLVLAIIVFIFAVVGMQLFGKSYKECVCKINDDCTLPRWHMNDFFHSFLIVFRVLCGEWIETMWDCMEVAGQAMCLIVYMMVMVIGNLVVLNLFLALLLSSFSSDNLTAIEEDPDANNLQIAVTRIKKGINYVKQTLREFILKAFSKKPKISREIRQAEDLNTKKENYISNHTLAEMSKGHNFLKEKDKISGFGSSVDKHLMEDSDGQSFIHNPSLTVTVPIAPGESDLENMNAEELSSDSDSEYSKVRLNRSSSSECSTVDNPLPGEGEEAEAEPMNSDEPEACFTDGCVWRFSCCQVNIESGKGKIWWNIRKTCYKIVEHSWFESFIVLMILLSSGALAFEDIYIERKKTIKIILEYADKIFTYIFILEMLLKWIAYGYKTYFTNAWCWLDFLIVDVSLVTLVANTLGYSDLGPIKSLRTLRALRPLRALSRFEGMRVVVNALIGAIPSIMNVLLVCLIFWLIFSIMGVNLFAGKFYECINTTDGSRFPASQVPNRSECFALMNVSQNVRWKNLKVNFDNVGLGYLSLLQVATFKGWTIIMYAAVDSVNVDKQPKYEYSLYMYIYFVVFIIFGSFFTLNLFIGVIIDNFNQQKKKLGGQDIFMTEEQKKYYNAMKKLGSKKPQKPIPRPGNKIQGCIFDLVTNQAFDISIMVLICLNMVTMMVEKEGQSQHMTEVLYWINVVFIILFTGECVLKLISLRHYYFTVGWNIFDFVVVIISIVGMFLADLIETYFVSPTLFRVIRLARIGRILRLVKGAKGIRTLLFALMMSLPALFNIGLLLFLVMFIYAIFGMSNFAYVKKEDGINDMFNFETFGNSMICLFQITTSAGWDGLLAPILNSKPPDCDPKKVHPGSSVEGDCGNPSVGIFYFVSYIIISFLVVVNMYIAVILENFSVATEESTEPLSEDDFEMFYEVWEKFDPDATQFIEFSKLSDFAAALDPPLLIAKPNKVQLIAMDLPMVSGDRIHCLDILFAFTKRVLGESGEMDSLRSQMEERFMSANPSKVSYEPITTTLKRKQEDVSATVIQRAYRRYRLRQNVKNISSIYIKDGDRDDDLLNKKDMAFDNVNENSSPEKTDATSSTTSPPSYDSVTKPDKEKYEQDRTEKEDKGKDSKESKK

Question: With `CC[C@H](C)[C@@H]1NC(=O)[C@@H]2CSSC[C@@H]3NC(=O)[C@H](C(C)C)NC(=O)[C@H](CC(C)C)NC(=O)[C@H](CCCNC(=N)N)NC(=O)[C@@H]4CCCN4C(=O)[C@H](CCCNC(=N)N)NC(=O)[C@H](CSSC[C@H](NC(=O)[C@@H](N)CC(=O)O)C(=O)N[C@@H](CC(C)C)C(=O)NCC(=O)N[C@@H](Cc4ccccc4)C(=O)N[C@@H](CCSC)C(=O)N[C@@H](CCCNC(=N)N)C(=O)N[C@@H](CCCCN)C(=O)N2)NC(=O)[C@H](CSSC[C@@H](C(=O)N[C@@H](CCCCN)C(=O)N[C@@H](Cc2ccc(O)cc2)C(=O)N[C@H](C(=O)N[C@@H](Cc2ccccc2)C(N)=O)C(C)C)NC(=O)[C@H](Cc2c[nH]c4ccccc24)NC(=O)[C@H](CCCCN)NC(=O)[C@H](Cc2c[nH]cn2)NC(=O)[C@H]([C@@H](C)O)NC(=O)[C@H](CCCNC(=N)N)NC(=O)[C@H](CO)NC3=O)NC(=O)[C@H](CCCCN)NC(=O)[C@H](CC(=O)O)NC(=O)[C@H](CC(N)=O)NC(=O)[C@H](CC(=O)O)NC(=O)[C@@H]2CCCN2C1=O` [compound 69] (H-DCLGFMRKCIPDNDKCCRPRLVCSRTHKWCKYVF-NH2; disulfide 2-17, 9-23, 16-30) as the molecule, how does the IC50 (IonWorks Quattro, Use) read?
Answer: 170 nM

Question: For `CSCC[C@@H]1NC(=O)[C@H](Cc2ccccc2)NC(=O)CNC(=O)[C@H](CC(C)C)NC(=O)[C@@H](NC(=O)[C@@H](N)CC(=O)O)CSSC[C@@H]2NC(=O)[C@@H]3CSSC[C@@H](C(=O)N[C@@H](CCCCN)C(=O)N[C@@H](Cc4ccc(O)cc4)C(=O)N[C@H](C(=O)N[C@@H](Cc4ccccc4)C(N)=O)C(C)C)NC(=O)[C@H](Cc4c[nH]c5ccccc45)NC(=O)[C@H](CCCCN)NC(=O)[C@H](Cc4c[nH]cn4)NC(=O)[C@H]([C@@H](C)O)NC(=O)[C@H](CCCNC(=N)N)NC(=O)[C@H](CO)NC(=O)[C@H](CSSC[C@H](NC(=O)[C@H](CCCCN)NC(=O)[C@H](CCCNC(=N)N)NC1=O)C(=O)N[C@@H](Cc1ccccc1)C(=O)N1CCC[C@H]1C(=O)N[C@@H](CC(=O)O)C(=O)N[C@@H](CC(N)=O)C(=O)N[C@@H](CC(=O)O)C(=O)N[C@@H](CCCCN)C(=O)N3)NC(=O)[C@H](C(C)C)NC(=O)[C@H](CC(C)C)NC(=O)[C@H](CC(N)=O)NC(=O)[C@@H]1CCCN1C(=O)[C@H](CCCNC(=N)N)NC2=O` [compound 302] (H-DCLGFMRKCFPDNDKCCRPNLVCSRTHKWCKYVF-NH2; disulfide 2-17, 9-23, 16-30), which IC50 (IonWorks Quattro, Use) is on record?
Answer: 110 nM

Question: Which IC50 does the source give for `CC[C@H](C)[C@@H]1NC(=O)[C@@H]2CSSC[C@@H]3NC(=O)[C@H](C(C)C)NC(=O)[C@H](CC(C)C)NC(=O)[C@H](CC(N)=O)NC(=O)[C@H](CCCCN)NC(=O)[C@H](CCCNC(=N)N)NC(=O)[C@H](CSSC[C@H](NC(=O)[C@@H](N)CC(=O)O)C(=O)N[C@@H](CC(C)C)C(=O)NCC(=O)N[C@@H](Cc4ccccc4)C(=O)N[C@@H](CCSC)C(=O)N[C@@H](CCCNC(=N)N)C(=O)N[C@@H](CCCCN)C(=O)N2)NC(=O)[C@H](CSSC[C@@H](C(=O)N[C@@H](CCCCN)C(=O)N[C@@H](Cc2ccc(O)cc2)C(=O)N[C@H](C(=O)N[C@@H](Cc2ccccc2)C(N)=O)C(C)C)NC(=O)[C@H](Cc2c[nH]c4ccccc24)NC(=O)[C@H](CCCCN)NC(=O)[C@H](Cc2c[nH]cn2)NC(=O)[C@H]([C@@H](C)O)NC(=O)[C@H](CCCNC(=N)N)NC(=O)[C@H](CO)NC3=O)NC(=O)[C@H](CCCCN)NC(=O)[C@H](CC(=O)O)NC(=O)[C@H](CC(N)=O)NC(=O)[C@H](CC(=O)O)NC(=O)[C@@H]2CCCN2C1=O` [compound 50] (H-DCLGFMRKCIPDNDKCCRKNLVCSRTHKWCKYVF-NH2; disulfide 2-17, 9-23, 16-30) here?
Answer: 120 nM

Question: How did the IC50 [1] turn out when `CC[C@H](C)[C@@H]1NC(=O)[C@@H]2CSSC[C@@H]3NC(=O)[C@H](C(C)C)NC(=O)[C@H](CC(C)C)NC(=O)[C@H](CC(N)=O)NC(=O)[C@@H]4CCCN4C(=O)[C@H](CCCNC(=N)N)NC(=O)[C@H](CSSC[C@H](NC(=O)[C@@H](N)CC(=O)O)C(=O)N[C@@H](CC(C)C)C(=O)N[C@@H](C)C(=O)N[C@@H](Cc4ccccc4)C(=O)N[C@@H](CCSC)C(=O)N[C@@H](CCCNC(=N)N)C(=O)N[C@@H](CCCCN)C(=O)N2)NC(=O)[C@H](CSSC[C@@H](C(=O)N[C@@H](CCCCN)C(=O)N[C@@H](Cc2ccc(O)cc2)C(=O)N[C@H](C(=O)N[C@@H](Cc2ccccc2)C(N)=O)C(C)C)NC(=O)[C@H](Cc2c[nH]c4ccccc24)NC(=O)[C@H](CCCCN)NC(=O)[C@H](Cc2c[nH]cn2)NC(=O)[C@H]([C@@H](C)O)NC(=O)[C@H](CCCNC(=N)N)NC(=O)[C@H](CO)NC3=O)NC(=O)[C@H](CCCCN)NC(=O)[C@H](CC(=O)O)NC(=O)[C@H](CC(N)=O)NC(=O)[C@H](CC(=O)O)NC(=O)[C@@H]2CCCN2C1=O` [SEQ ID NO: 141] (H-DCLAFMRKCIPDNDKCCRPNLVCSRTHKWCKYVF-NH2; disulfide 2-17, 9-23, 16-30) was run?
Answer: 270 nM

Question: How did the “activity against NaV1.7 relative to GpTx-1, in words” value turn out when “[Ser-Ser19]GpTx-1 (DCLGFMRKCIPDNDKCCRSSNLVCSRTHKWCKYVF-NH2; ends and bridges not checked)” was run?
Answer: without substantial impact on the activity

Question: `CC[C@H](C)[C@@H]1NC(=O)[C@@H]2CSSC[C@@H]3NC(=O)[C@H](C(C)C)NC(=O)[C@H](CC(C)C)NC(=O)[C@H](CC(N)=O)NC(=O)[C@@H]4CCCN4C(=O)[C@H](CCCNC(=N)N)NC(=O)[C@H](CSSC[C@H](NC(=O)[C@@H](N)CC(=O)O)C(=O)N[C@@H](CC(C)C)C(=O)NCC(=O)N[C@@H](Cc4ccccc4)C(=O)N[C@@H](CCSC)C(=O)N[C@@H](CCCNC(=N)N)C(=O)N[C@@H](CCCCN)C(=O)N2)NC(=O)[C@H](CSSC[C@@H](C(=O)N[C@@H](CCCCN)C(=O)N[C@@H](Cc2ccc(O)cc2)C(=O)N[C@H](C(=O)N[C@@H](Cc2ccccc2)C(N)=O)C(C)C)NC(=O)[C@H](Cc2c[nH]c4ccccc24)NC(=O)[C@H](CCCCN)NC(=O)[C@H](Cc2c[nH]cn2)NC(=O)[C@H]([C@@H](C)O)NC(=O)[C@H](CCCNC(=N)N)NC(=O)[C@H](CO)NC3=O)NC(=O)[C@H](CCCCN)NC(=O)[C@H](CC(=O)O)NC(=O)[C@H](CC(N)=O)NC(=O)[C@H](C)NC(=O)[C@@H]2CCCN2C1=O` [compound 4] (H-DCLGFMRKCIPANDKCCRPNLVCSRTHKWCKYVF-NH2; disulfide 2-17, 9-23, 16-30) was tested. Which IC50 (IonWorks Quattro, Use) did it give?
Answer: 120 nM

Question: Which IC50 (IonWorks Quattro, Use) does the source give for `CSCC[C@@H]1NC(=O)[C@H](Cc2ccccc2)NC(=O)CNC(=O)[C@H](CC(C)C)NC(=O)[C@@H](NC(=O)[C@@H](N)CC(=O)O)CSSC[C@@H]2NC(=O)[C@@H]3CSSC[C@@H](C(=O)N[C@@H](CCCCN)C(=O)N[C@@H](Cc4ccc(O)cc4)C(=O)N[C@H](C(=O)N[C@@H](Cc4ccccc4)C(N)=O)C(C)C)NC(=O)[C@H](Cc4c[nH]c5ccccc45)NC(=O)[C@H](CCCCN)NC(=O)[C@H](Cc4c[nH]cn4)NC(=O)[C@H]([C@@H](C)O)NC(=O)[C@H](CCCNC(=N)N)NC(=O)[C@H](CO)NC(=O)[C@H](CSSC[C@H](NC(=O)[C@H](CCCCN)NC(=O)[C@H](CCCNC(=N)N)NC1=O)C(=O)N[C@@H](Cc1c[nH]cn1)C(=O)N1CCC[C@H]1C(=O)N[C@@H](CC(=O)O)C(=O)N[C@@H](CC(N)=O)C(=O)N[C@@H](CC(=O)O)C(=O)N[C@@H](CCCCN)C(=O)N3)NC(=O)[C@H](C(C)C)NC(=O)[C@H](CC(C)C)NC(=O)[C@H](CC(N)=O)NC(=O)[C@@H]1CCCN1C(=O)[C@H](CCCNC(=N)N)NC2=O` [compound 304] (H-DCLGFMRKCHPDNDKCCRPNLVCSRTHKWCKYVF-NH2; disulfide 2-17, 9-23, 16-30) here?
Answer: 50 nM

Question: `CC[C@H](C)[C@@H]1NC(=O)[C@@H]2CSSC[C@@H]3NC(=O)[C@H](C(C)C)NC(=O)[C@H](CC(C)C)NC(=O)[C@H](CC(N)=O)NC(=O)[C@@H]4CCCN4C(=O)[C@H](CCCNC(=N)N)NC(=O)[C@H](CSSC[C@H](NC(=O)[C@@H](N)CC(=O)O)C(=O)N[C@@H](CC(C)C)C(=O)N[C@@H](CCC(=O)O)C(=O)N[C@@H](Cc4ccccc4)C(=O)N[C@@H](CCSC)C(=O)N[C@@H](CCCNC(=N)N)C(=O)N[C@@H](CCCCN)C(=O)N2)NC(=O)[C@H](CSSC[C@@H](C(=O)N[C@@H](CCCCN)C(=O)N[C@@H](Cc2ccc(O)cc2)C(=O)N[C@H](C(=O)N[C@@H](Cc2ccccc2)C(N)=O)C(C)C)NC(=O)[C@H](Cc2c[nH]c4ccccc24)NC(=O)[C@H](CCCCN)NC(=O)[C@H](Cc2c[nH]cn2)NC(=O)[C@H]([C@@H](C)O)NC(=O)[C@H](CCCNC(=N)N)NC(=O)[C@H](CO)NC3=O)NC(=O)[C@H](CCCCN)NC(=O)[C@H](CC(=O)O)NC(=O)[C@H](CC(N)=O)NC(=O)[C@H](CC(=O)O)NC(=O)[C@@H]2CCCN2C1=O` [SEQ ID NO: 24] (H-DCLEFMRKCIPDNDKCCRPNLVCSRTHKWCKYVF-NH2; disulfide 2-17, 9-23, 16-30) was tested. Which IC50 [1] did it give?
Answer: 1740 nM

Question: For “[Glu18;desAsn20]GpTx-1 (DCLGFMRKCIPDNDKCCEGLVCSRTHKWCKYVF-NH2; ends and bridges not checked)”, which “activity against NaV1.7 relative to GpTx-1, in words” value is on record?
Answer: without substantial impact on the activity

Question: With `CC[C@H](C)[C@@H]1NC(=O)[C@@H]2CSSC[C@@H]3NC(=O)[C@H](C(C)C)NC(=O)[C@H](CC(C)C)NC(=O)[C@H](CC(N)=O)NC(=O)[C@@H]4CCCN4C(=O)[C@H](CCCNC(=N)N)NC(=O)[C@H](CSSC[C@H](NC(=O)[C@@H](N)CCC(=O)O)C(=O)N[C@@H](CC(C)C)C(=O)NCC(=O)N[C@@H](Cc4ccccc4)C(=O)N[C@@H](CCSC)C(=O)N[C@@H](CCCNC(=N)N)C(=O)N[C@@H](CCCCN)C(=O)N2)NC(=O)[C@H](CSSC[C@@H](C(=O)N[C@@H](CCCCN)C(=O)N[C@@H](Cc2ccc(O)cc2)C(=O)N[C@H](C(=O)N[C@@H](Cc2ccccc2)C(N)=O)C(C)C)NC(=O)[C@H](Cc2c[nH]c4ccccc24)NC(=O)[C@H](CCCCN)NC(=O)[C@H](Cc2c[nH]cn2)NC(=O)[C@H]([C@@H](C)O)NC(=O)[C@H](CCCNC(=N)N)NC(=O)[C@H](CO)NC3=O)NC(=O)[C@H](CCCCN)NC(=O)[C@H](CC(=O)O)NC(=O)[C@H](CC(N)=O)NC(=O)[C@H](CC(=O)O)NC(=O)[C@@H]2CCCN2C1=O` [SEQ ID NO: 18] (H-ECLGFMRKCIPDNDKCCRPNLVCSRTHKWCKYVF-NH2; disulfide 2-17, 9-23, 16-30) as the molecule, how does the IC50 [1] read?
Answer: 220 nM
